In US12577206B2 (BRISTOL-MYERS SQUIBB COMPANY, priority 2020, dated 2026):

Key:
human FPR1 = target: T1, human FPR1 (Homo sapiens, UniProt P21462); assay: FPR1 cyclic adenosine monophosphate (cAMP) assay; format: cell-based; conditions: CHO cells overexpressing human FPR1; forskolin 10 μM; inhibition of cAMP production; HTRF; read-out: hFPR1 cAMP2 EC50
T1 sequence (P21462 1-350): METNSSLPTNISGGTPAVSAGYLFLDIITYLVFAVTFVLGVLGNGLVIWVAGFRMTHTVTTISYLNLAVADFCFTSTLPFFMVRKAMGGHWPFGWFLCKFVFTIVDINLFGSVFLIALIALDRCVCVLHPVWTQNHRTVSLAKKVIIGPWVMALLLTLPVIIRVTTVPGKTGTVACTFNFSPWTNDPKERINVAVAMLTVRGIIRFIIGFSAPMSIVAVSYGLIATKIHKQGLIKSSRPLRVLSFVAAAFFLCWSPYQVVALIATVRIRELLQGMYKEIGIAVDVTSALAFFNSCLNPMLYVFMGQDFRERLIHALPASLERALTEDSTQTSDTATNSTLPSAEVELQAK
Method in brief: (§1)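 CHO cells overexpressing human FPR1 (4,000/well) or FPR2 (2,000/well) were incubated 30 min at room temperature with compound (0.020 nM to 100 μM, 1% DMSO), IBMX 200 μM, and forskolin at 10 μM (FPR1) or 5 μM (FPR2), all final. HTRF cAMP read-out; inhibition fitted by 4-parameter logistic equation.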

human FPR2 = target: T2, human FPR2 (Homo sapiens, UniProt P25090); assay: FPR2 cyclic adenosine monophosphate (cAMP) assay; format: cell-based; conditions: CHO cells overexpressing human FPR2; forskolin 5 μM; inhibition of cAMP production; HTRF; read-out: hFPR2 cAMP2 EC50
T2 sequence (P25090 1-351): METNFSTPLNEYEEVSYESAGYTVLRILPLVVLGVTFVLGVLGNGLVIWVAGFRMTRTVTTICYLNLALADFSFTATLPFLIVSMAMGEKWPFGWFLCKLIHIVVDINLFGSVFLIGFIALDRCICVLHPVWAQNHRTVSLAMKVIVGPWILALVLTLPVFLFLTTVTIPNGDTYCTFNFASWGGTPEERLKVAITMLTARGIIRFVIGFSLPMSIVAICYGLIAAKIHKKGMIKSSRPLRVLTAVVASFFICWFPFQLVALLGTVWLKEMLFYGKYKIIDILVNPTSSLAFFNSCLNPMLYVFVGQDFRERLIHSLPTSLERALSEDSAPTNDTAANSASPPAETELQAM
Method in brief: as §1

SMILES | EC50 (human FPR1) [nM] | EC50 (human FPR2) [nM]
Cc1cc(OCC(C)(C)O)nc(-n2c(=O)c(NC(=O)c3ccc(OC(F)F)cc3)c(-c3c(F)cc(OC(F)F)cc3F)n2C)c1 [Example 400, 4-(difluoromethoxy)-N-(5-(4-(difluoromethoxy)-2,6-difluorophenyl)-2-(6-(2-hydroxy-2-methylpropoxy)-4-methylpyridin-2-yl)-1-methyl-3-oxo-2,3-dihydro-1H-pyrazol-4-yl)benzamide] | > 10000 | 57
Cn1c(-c2c(F)cc(C(F)(F)F)cc2F)c(NC(=O)c2ccc(OC(F)F)cc2)c(=O)n1-c1cccc(C(C)(C)O)n1 [Example 401, N-(5-(2,6-difluoro-4-(trifluoromethyl)phenyl)-2-(6-(2-hydroxypropan-2-yl)pyridin-2-yl)-1-methyl-3-oxo-2,3-dihydro-1H-pyrazol-4-yl)-4-(difluoromethoxy)benzamide] | 1800 | 103
[2H]C([2H])([2H])Oc1cc(F)c(-c2c(NC(=O)c3ccc(OC(F)(F)F)cc3)c(=O)n(-c3cc(C(F)(F)F)ccn3)n2C)c(F)c1 [Example 402, N-(5-(2,6-difluoro-4-(methoxy-d3)phenyl)-1-methyl-3-oxo-2-(4-(trifluoromethyl)pyridin-2-yl)-2,3-dihydro-1H-pyrazol-4-yl)-4-(trifluoromethoxy)benzamide] | > 10000 | 5
CCc1cc(F)c(-c2c(NC(=O)c3ccc(OC(F)(F)F)cc3)c(=O)n(-c3cccc(C(C)(C)O)n3)n2C)c(F)c1 [Example 403, N-(5-(4-ethyl-2,6-difluorophenyl)-2-(6-(2-hydroxypropan-2-yl)pyridin-2-yl)-1-methyl-3-oxo-2,3-dihydro-1H-pyrazol-4-yl)-4-(trifluoromethoxy)benzamide] | 1700 | 6
[2H]C([2H])([2H])Oc1cc(F)c(-c2c(NC(=O)c3ccc(OC(F)F)cc3)c(=O)n(-c3cccc(C(C)(C)O)n3)n2C)c(F)c1 [Example 404, N-(5-(2,6-difluoro-4-(methoxy-d3)phenyl)-2-(6-(2-hydroxypropan-2-yl)pyridin-2-yl)-1-methyl-3-oxo-2,3-dihydro-1H-pyrazol-4-yl)-4-(difluoromethoxy)benzamide] | 1500 | 7
[2H]C([2H])([2H])Oc1cc(F)c(-c2c(NC(=O)c3ccc(OC(F)(F)F)cc3)c(=O)n(-c3cccc(C(C)(C)O)n3)n2C)c(F)c1 [Example 405, N-(5-(2,6-difluoro-4-(methoxy-d3)phenyl)-2-(6-(2-hydroxypropan-2-yl)pyridin-2-yl)-1-methyl-3-oxo-2,3-dihydro-1H-pyrazol-4-yl)-4-(trifluoromethoxy)benzamide] | 390 | 8
Cn1c(-c2c(F)cc(Cl)cc2F)c(NC(=O)c2ccc(OC(F)(F)F)cc2)c(=O)n1-c1cccc(C(C)(C)O)n1 [Example 406, N-(5-(4-chloro-2,6-difluorophenyl)-2-(6-(2-hydroxypropan-2-yl)pyridin-2-yl)-1-methyl-3-oxo-2,3-dihydro-1H-pyrazol-4-yl)-4-(trifluoromethoxy)benzamide] | 1600 | 12
Cn1c(-c2c(F)cc(Cl)cc2F)c(NC(=O)c2ccc(OC(F)F)cc2)c(=O)n1-c1cccc(C(C)(C)O)n1 [Example 407] | > 10000 | 23
CC(C)Oc1cc(OCC(C)(C)O)nc(-n2c(=O)c(NC(=O)c3ccc(OC(F)(F)F)cc3)c(-c3c(F)cc(Cl)cc3F)n2C)c1 [Example 408, N-(5-(4-chloro-2,6-difluorophenyl)-2-(6-(2-hydroxy-2-methylpropoxy)-4-isopropoxypyridin-2-yl)-1-methyl-3-oxo-2,3-dihydro-1H-pyrazol-4-yl)-4-(trifluoromethoxy)benzamide] | 1100 | 7
